This is an account of results in patent US8252748B2, “Peptide derived from neurotensin receptor 3 and use thereof in the treatment of psychiatric diseases” (Centre National de la Recherche Scientifique—CNRS, priority 2007, dated 2012).

Series [1] concerns mouse (C57Black/J). The series is described as follows: Forced swimming test (FST). It is filed as in vivo. From the text:
(§1) The inventors conducted three types of behavioral experiments that are regarded as classical for determining the antidepressant activity of a substance (Nestler E. J., Gould E., Manji H., Buncan M., Duman R. S., Greshenfeld H. K., Hen, R. et al. “Preclinical models: status of basic research in depression” Biol Psychiatry. 15, 503-528 (2002) (20) and Cryan, J. & Holmes, A. “The ascent of mouse: advances in modeling human depression and anxiety” Nat Rev Drug Discov. 4, 775-790 (2005) (21)). The effects of the propeptide of the present invention were compared with those of the saline solution in which it is dissolved and with those of fluoxetine, one of the most-used antidepressants in clinical practice. The mouse strain used is C57Black/J strain. TREK-1^−/− mice were also measured in these various tests.
The propeptide is dissolved in 0.9% NaCl saline solution to the desired concentrations: 10^−5 M, 10^−6 M, 10^−7 M and […]. Different volumes are injected depending on the technique used: • intracerebroventricular: 5 μl • intravenous: 100 μl • intraperitoneal: 100 μl
For the ICV injections, a Hamilton syringe (Fisher Bioblock) (trademark) of 10 μl is used, and in the case of IV or IP injections, a needle of 0.45×12 mm is used.
A. Forced Swimming Test (FST) (Cryan & Holmes, 2005 (21)) […]

In series [2] the test system is C57BL6/J mice. The series is described as follows: Focal ischemia (middle cerebral artery occlusion), infarct size. The class given is in vivo, mouse. The note with it: daily IP 100 μl at 10^−5 M for a week, vs physiological saline. The procedure: The model used for inducing a CVA is that of focal ischemia, which consists of occlusion of the middle cerebral artery with a thread (Heurteaux C., Laigle, C., Blondeau, N., Jarretou, G., Lazdunski, M. “Alpha-linolenic acid and riluzole treatment confer cerebral protection and improve survival after focal brain ischemia” Neuroscience, 137: 241-251 (2006) (27). The size of the infarcts caused by this focal ischemia was measured after staining brain sections with cresyl violet. The infarct is measured by tracing the contour of the infarct zone by an image analysis system (Olympus DP Soft) according to the method described in Heurteaux et al., 2006 (27). The brains of C57BL6/J mice (at the rate of 10 mice per experimental group) are treated for a week with a daily intraperitoneal injection of 100 μl of a solution containing either the peptide of sequence ID No. 2 at a concentration of 10^−5M (“PE 10^−5M” group), or with a solution of physiological saline solution (“PHYS SALINE” group). The values were compared between the two groups.
The difference was evaluated using the Student t test.

The test system of series [3] is C57BL6/J mice. Description: Hot plate test of sensitivity to pain. It is filed as in vivo, mouse. The following applies: IV 100 μl at 10^−6 M, 30 minutes after injection. The procedure: Sensitivity to pain was measured with two tests: the hot plate test and the “tail flick” test.
This test consists of measuring the time that a mouse licks its hind paws when it is put on a plate maintained at a given temperature. Two temperatures were used: 50 and 56° C.
The mice used were C57BL6/J mice. Each group was constituted of 10 mice.
The sensitivity to heat was then measured on the three groups of mice and the results obtained were compared.
The measurements were taken 30 minutes after injection.
The statistical difference was measured using the one-factor ANOVA test followed by the post-hoc test.
In general terms: In hot-plate and tail-flick tests a longer latency is read as antinociception.

Series [4] has as its system mouse (C57Black/J). The series is described as follows: Conditioned motility suppression test (CMST). It is filed as in vivo. The note with it: propeptide IV 100 μl at 1 μM per animal; 30 min after injection.
From the text: as §1
In the next two tests, the propeptide of the present invention was administered by the IV route at a rate of 100 μl at 1 μM per animal.
C. Conditioned Motility Suppression Test (CMST) (see Daugé, V., Sebret, A., Beslot, F., Matsui, T., & Rogues B. “Behavioral profile of CCK2 receptor-deficient mice” Neuropsychopharmacol; 25: 690-698 (2001) (23).
The experiment consists of conditioning the mouse on day 1, and measuring the effects of the substances on day 2.
On day 1, each mouse is placed in a box where the floor is a metal grille connected to an electric stimulator. […]

Series [5] relates to hippocampus progenitor cells. The series is described as follows: Neurogenesis (BrdU-positive cells) after 4 days of treatment. The class given is in vivo, mouse. The note with it: PE 10^−5 M. From the text:
In contrast to many antidepressants now commonly used, the efficacy of action of the peptide of the invention is very rapid. […] 93: 3908-3913 (1996) (28) and with a considerable decrease in neurogenesis in the dentate gyrus (Gould, E., Tanapat, P., McEwen, B. S., Flugge, G., Fuchs, E. “Proliferation of granule cell precursors in the dentate gyrus of adult monkeys is diminished by stress” Proc Natl Acad Sci USA, 95: 3168-3171 (1998)) (29).
The experimental protocol is that described in the material and methods (Supplement) of the work of Santarelli et al., “Requirement of hippocampal neurogenesis for the behavioral effects of antidepressants” Science, 301: 805-809 (2003) (24) apart from the duration of treatment, which is four days.
The increase was evaluated using the one-factor ANOVA test followed by the post-hoc test.

No end group written: not given here.

Regarding “APLPRWSGPIGVSWGLR [propeptide, APLPRWSGPIGVSWGLR]”, the “effect on immobility time” value in the series on mouse (C57Black/J) [1] (ICV, IV or IP injection, 30 min after injection) is given as “comparable to those produced by fluoxetine”. Also, the “crossing of the blood-brain barrier (BBB)” value with mouse (C57Black/J) [1] (inferred from activity by intravenous or intraperitoneal as well as central route) was “easily crosses the blood-brain barrier”. Also, in the series on C57BL6/J mice [2], the “size of the infarct caused by focal ischemia” value is “does not have a significant effect”. Besides, the “reaction time on hot plate” value is 21.1 ± 1.5 s in the series with C57BL6/J mice [3] (50° C.) and 4.6 ± 0.9 s with C57BL6/J mice [3] (56° C.). Besides, the “motility relative to untreated shocked mice” value with mouse (C57Black/J) [4] was found to be 7 times greater. For the same sequence, the “neurogenesis relative to physiological saline” value in series [5] is “significant increase in neurogenesis”.
